Measured values taken from patent US11383003B2, “Water soluble farnesol analogs and their use” (Kimberly-Clark Worldwide, Inc., priority 2012, dated 2022).

Key:
C. elegans glp4; sek1 = test: Toxicity: death rate of C. elegans glp4; sek1 fed on E. coli OP50; conditions: for Death rate (%): 2 mM, worms fed on E. coli OP50, 25° C.; for toxicity to C. elegans fed on E. coli OP50 (in words): in vivo
Protocol: The toxicity of the selected compounds/products were tested using the C. elegans glp4; sek1 fed on E. coli OP50 (Table 5).
Stock cultures of C. albicans SC 5314 was subcultured into 3 ml of YPD broth and incubated at 30° C. Then the overnight culture in broth was spread onto YPD agar, and incubated at 30° C. The 24 h old lawn of SC5314 was used to feed worms for 2 h at 25° C. The control were worms fed on OP50.
The worms were washed off the YPD plates and washed twice with M9 buffer. The worms were resuspended in screening media, M9 buffer with 0.3% Tween 80. The worm suspension (50 μl) was dispensed into the wells of 96-well plates, 20-30 worms/well. Aliquots (50 μl) of compounds in screening media were added to wells, 5 wells each compound. The 96 well plates were incubated at 25° C. for up to 5 days. Live and dead worms were counted during incubation, and the death rates of worms were calculated.

C. albicans SC5314 = test: Germ tube formation (GTF %) in vitro screening, GlcNAc-triggered differentiation assay; assay type: cell-based, Candida albicans
Protocol: Based on the results in FIG. 3, single cell suspensions of SC5314 was prepared as follows. Stock culture of C. albicans SC5314 was streaked onto YPD agar (YPDA) and incubated at 30° C. overnight. Single colonies were subcultured in YPD broth (YPDB) and incubated 30° C., 200 rpm overnight. Overnight culture in YPDB was subcultured in YPD broth again and incubated 30° C., 200 rpm 48 h. Cells were collected by centrifugation (4000 g 10 min) at 4° C., washed three times with sterile water, and then resuspended in sterile water a final concentration of 10^9 colony-forming unit/ml (cfu/ml). The suspension were stored at 4° C. at least 1 d, then subcultured into YPDB to a final concentration of 10^6 cfu/ml. After 48 h incubation, cell suspension was examined under the microscope for single cell percentage. When the single cell percentage exceeded 80%, cells were collected and washed three times with water, then resuspended in water to a final concentration of 10^9 cfu/ml, and stored at 4° C. for no more than a month.
Two approaches were taken to determine the percentage of cells with germ tubes formed (GTF %). One way was to count the total cells at the start of incubation, and count the ungerminated cells after incubation, then calculate the GTF % as (1—ungerminated cells/total cells at 0 h)*100. Another way was to store the samples at 15° C. for 20 h after incubation, then count the germinated cells and total cells after disaggregation, then calculated the GTF % as (germinated cells/total cells after storage)*100. […] Therefore, for practical purposes, the GTF % was determined by the first method, that is, GTF %=(1—ungerminated cells/total cells at 0 h)*100, for the in vitro screening discussed herein.
A screening medium, containing 11 mM imidazole buffer, 3 mM MgSO4, and 2.6 mM N-acetyl-D-glucosamine (GlcNAc) has been used to study the effect of farnesol analogs on the germ tube formation of C. albicans. Here, the germ tube formation of C. albicans in modified screening media was assessed with various concentrations of imidazole buffer (10 mM, 30 mM and 50 mM) and MgSO4 (0.5 mM, 1.5 mM and 3 mM). […] It took 2 h to 3 h for the GTF % to reach above 80%. For practical purposes, the screening medium, containing 11 mM imidazole buffer, 0.5 mM MgSO4, and 2.6 mM N-acetyl-D-glucosamine (GlcNAc) was adopted for in vitro screening the quorum sensing inhibitory effect of farnesol compounds.
The in vitro screening assay was based on the N-acetylglucosamine (GlcNAc)-triggered differentiation assay (Hornby et al., “Quorum sensing in the dimorphic fungus Candida albicans is mediated by farnesol;” Applied and Environmental Microbiology 67:2982-2992; 2001), which included 0.56 ml of 0.1 M imidazole buffer (pH 6.5), 0.15 ml of 0.1 M MgSO4, 0.13 ml of 0.1 M GlcNAc, and 4.16 ml of sterilized water. Bioassays of quorum sensing candidates were conducted by the addition of the chemical, as a solution in 100% methanol, to the bioassay media; the final concentration of methanol was no greater than 1%.

[1] = tested on: C. elegans glp4; sek1 infected with C. albicans SC5314; test: Death rate of C. elegans glp4; sek1 infected with C. albicans SC5314, 96 well plates; assay type: in vivo, Caenorhabditis elegans; conditions: for % change in the death rate compared to the control: 25° C.
Protocol: Caenorhabditis elegans glp4; sek1 was used as the model for […]. Breger et al. (Breger, J.; Fuchs, B. B.; Aperis, G.; Moy, T. I., Ausubel, F. M., Mylonakis, E.; “Antifungal chemical compounds identified using a C. elegans pathogenicity assay.” PLoS Pathogens 3: 168-178; 2007) reported that the glp-4 mutation rendered the strain incapable of producing progeny at 25° C., and the sek-1 mutation enhanced the sensitivity of the strain to various pathogens, thereby decreasing the time for screening assays. It was observed that no progenies was produced by the Caenorhabditis elegans glp4; sek1 strain after 3 d incubation at 25° C.
The synchronization of C. elegans was achieved by collecting the eggs and arresting the larvae at L1 stage. The commonly used bleach treatment was able to release the eggs from the adult worms. However, it was observed that the released eggs were not always able to hatch after treated with sodium hypochlorite (0.2, 0.3, 0.4, 0.5, 0.7 or 1%) for 3-5 min. A modified egg laying method was developed to synchronize worms to L1 stage. In brief, stock cultures of C. elegans glp4; sek1, maintained on Nematode Growth Media plates (NGM plates), were subcultured onto NGM plates with OP 50 and incubated at 15° C. for 6-9 days. Then a chunk (1 cm^2) of agar with gravid adults was subcultured again onto NGM plates with OP50 and incubated at 15° C. After incubation of 3-7 days, the worms were gently washed off with 3 ml of M 9 buffer on the rotating platform (100 rpm). The plate was tilted on its lid to allow the liquid and worms drain to one side of the plate. The liquid and worms were aspirated off. The plate was washed again with M9 buffer three more times to remove OP50 as much as possible. After washing, the plate was incubated at 25° C. overnight to let the eggs hatch overnight. Since there was no OP50, the larvae were arrested at the L1 stage. The live C. elegans glp4; sek1 was quite curvy; whereas the dead C. elegans glp4; sek1 tended to be straight, and in most cases the dead worms with the hyphae of C. albicans pieced through the body. The curvy shape and movement after shaking were used as the criteria for live.
The In vitro screening assay, based on the method of Tampakakis et al (Tampakakis, E.; Okoli, I.; Mylonakis, E.; “A C. elegans-based, whole animal, in vivo screen for the identification of antifungal compounds.” Nature Protocols 3:1925-1931; 2008), is described as follows:
L1 worms, which were prepared by the modified egg-laying method, were collected by centrifugation at 675 g for 30 s at room temperature, and the supernatant was removed. Worms were resuspended in M 9 buffer and inoculated on NGM agar plates with OP50, ˜1000 worms per plate. After 2-3 days incubation at 25° C., the worms were washed off with M 9 buffer for the […] assay.
The control were worms fed on OP50.

[2] = 0.4 mM to 3 mM (the tested four concentrations)
[3] = 2.0 mM, 4 days, two replicates (* three)
[4] = 2.0 mM, 5 days, two replicates (* three)

SMILES | Death rate (%) (C. elegans glp4; sek1) | toxicity to C. elegans fed on E. coli OP50 (in words) (C. elegans glp4; sek1) | GTF % (mean ± SEM, n = 2) (C. albicans SC5314; 100 μM, * one replicate) | GTF % (mean ± SEM, n = 2) (C. albicans SC5314; 200 μM) [%] | effect on death rate of infected C. elegans (in words) [1, 2] | % change in the death rate compared to the control ([1]; 0.4 mM, 4 days, two replicates) [%] | % change in the death rate compared to the control ([1]; 0.4 mM, 5 days, two replicates) [%] | % change in the death rate compared to the control ([1]; 1.0 mM, 4 days, two replicates) [%] | % change in the death rate compared to the control ([1]; 1.0 mM, 5 days, two replicates) [%] | % change in the death rate compared to the control [1, 3] [%] | % change in the death rate compared to the control [1, 4] [%] | % change in the death rate compared to the control ([1]; 3.0 mM, 4 days, two replicates) [%] | % change in the death rate compared to the control ([1]; 3.0 mM, 5 days, two replicates) [%] | effect on death rate of infected C. elegans (in words) ([1]; key finding, no concentration stated)
C=CC(C)(O)CC/C=C(\C)CCC=C(C)C (stereo not drawn) [trans-nerolidol, reference compound] | 23 | toxic to the worm | 92.4* % | 51.6 ± 1.8 | increased the death rate of the worm significantly | 11 ± 4 | 4 ± 5 | 3 ± 7 | −8 ± 5 | 25 ± 10 | 10 ± 2 | 7 ± 0 | 9 ± 9 | 
OC[C@H]1O[C@@H](OCCc2ccc(O)cc2)[C@H](O)[C@@H](O)[C@@H]1O [salidroside] |  |  | 93.2* % | 78.0 ± 5.9 |  |  |  |  |  |  |  |  |  | 
COc1cc(CCN)ccc1O [3-Methoxy-4-hydroxy-phenylethyl amine] |  |  | 95.7* % | 86.4 ± 3.3 |  |  |  |  |  |  |  |  |  | 
O=C(O)Cc1ccccc1O [2-hydroxy phenyl acetic acid] |  |  | 90.3* % | 71.3 ± 2.5 |  |  |  |  |  |  |  |  |  | 
OC=Cc1ccccc1 [β-phenylethenol] |  |  | 91.7* % | 84.5 ± 0.3 |  |  |  |  |  |  |  |  |  | 
CC(C)=CCC/C(C)=C/CC/C(C)=C/COC(=O)CCC(=O)OCCCCO [#2 synthesized analog] | 4 ± 0.6 |  | 71.2 ± 2.9% | 33.9 ± 0.6 | reduced the death rate significantly | −36 ± 4 | −38 ± 2 | −28 ± 5 | −29 ± 10 | −39 ± 11 | −39 ± 11 | −40 ± 0 | −40 ± 4 | significantly reduced the death rate
OCCc1ccc(O)c(O)c1 [hydroxytyrosol] |  |  | 78.0* % | 84.9 ± 0.1 |  |  |  |  |  |  |  |  |  | 
CC(C)=CCC/C(C)=C/CC/C(C)=C/CO[C@@H]1C(O)C(O)OC(CO)C1O (stereo partly drawn) [#8 synthesized analog] |  |  | 76.6 ± 0.3% | 66.3 ± 0.6 |  |  |  |  |  |  |  |  |  | 
CC(=O)OCC=C(C)CCC=C(C)CCC=C(C)C [farnesyl acetate, reference compound] | 12 | toxic to the worm | 51.9 ± 2.1% | 36.8 ± 0.8 | increased the death rate of the worm significantly | 10 ± 6 | 4 ± 3 | 27 ± 7 | 15 ± 7 | 21 ± 5 | 9 ± 2 | 24 ± 9 | 7 ± 10 | 
CC(C)=CCC/C(C)=C/CC/C(C)=C/COCCCO [#6 synthesized analog] |  |  | 75.1 ± 0.5% | 51.1 ± 3.2 |  |  |  |  |  |  |  |  |  | 
CC(C)=CCC/C(C)=C/CC/C(C)=C/COC(=O)CCC(=O)OCCCO [#3 synthesized analog] | 6 |  | 66.9 ± 1.5% | 32.9 ± 1.0 | did not have significant effect on the death of the worms | −6 ± 7 | 10 ± 3 | 1 ± 6 | 3 ± 8 | −12 ± 9 | 9 ± 10 | −2 ± 2 | 7 ± 1 | 
CC(C)=CCC/C(C)=C/CC/C(C)=C/COCCO [#7 synthesized analog] |  |  | 72.6 ± 1.7% | 58.8 ± 2.1 |  |  |  |  |  |  |  |  |  | 
O=C(O)Cc1ccc(O)cc1 [4-hydroxy phenyl acetic acid] |  |  | 93.1* % | 86.2 ± 1.8 |  |  |  |  |  |  |  |  |  | 
